Reference: patent publication US9956291B2, “Nanoformulation and methods of use of thyroid receptor beta1 agonists for liver targeting” (priority 2012, dated 2018)

Columns and labels:
LDLR [1] = test: Test for LDLR up-regulation in transfected HEK-293 cells; type: cell-based, human
Experimental: (§1) The expression vector of human LDLR was constructed under the control of the cytomegalovirus promoter-enhancer (pCMV-LDLR). These constructs were used to transiently transfect mammalian cells, and cells were subjected to SDS-PAGE and immunoblot analysis using an LDLR antibody. […] Using this assay, compounds were tested for their ability to reduce the degradation of the LDLR. HEK-293 cells grown in 96-well plates overnight and transfected with LDLR were used. Compounds dissolved in DMSO or vehicle were added to the culture media, and incubated for 24-48 hours. The cells were then lysed. Both cell lysate and supernatant are subjected to quantitation using the above immunoassay. Compounds that increase the up-regulation of LDLR were selected. A similar assay was implemented using the HepG2 cells, since these cells express the LDLR endogenously.

LDLR [2] = test: Test for LDLR up-regulation in HepG2 cells (endogenous LDLR); type: cell-based, human
Experimental: as §1

high fat diet mice = test: Nutritionally-induced hypercholesterolemia model (high fat diet mice); type: in vivo
Experimental: Mice were fed a high fat diet (TD.06414, Harlan Research Diet, Inc., Indianapolis, Ind.) that provides […] from fat sources increased total cholesterol. […] Male C57BL/6 mice were fed either a commercial chow diet (Prolab RMH 3000, PMI feeds, St. Louis, Mo.) to serve as a negative control, or a high fat diet (TD.06414). Plasma was collected once weekly to monitor the level of LDL-C, total cholesterol, HDL-C, and triglyceride. […] One group was treated with vehicle, and the other groups are treated with TRβ1 agonist compounds versus its Nano-targeted ones at different doses.
High-fat diet (HFD)-induced dyslipidemia in mice. FIG. 12 depicts dose-ranging of Chitosan-PLGA NP-encapsulated GC-1 and conjugated with Glycyrrhetinic acid versus un-encapsulated GC-1 for lowering total cholesterol in HFD mice, in accordance with embodiments of the present invention.

[3] = cited from earlier work
[4] = in vivo; cited from earlier work
cartilage = details: dogs, up to 12 months; cited from earlier work
[5] = moderately overweight and hypercholesterolemic subjects, two weeks

SMILES	LDLR up-regulation (LDLR [1])	LDLR up-regulation (LDLR [2])	dose of maximum effect on total cholesterol (toward normal regular diet levels) (high fat diet mice; IP daily, week 1 and week 2)	lowering of total cholesterol (high fat diet mice; IP daily, week 1 and week 2, dose-ranging)	lowering serum cholesterol and triglyceride ([3]; Phase I clinical trial)	serum cholesterol and triglyceride [4]	reduction of serum total cholesterol (high fat diet mice; 0.1 mg/Kg daily for 6 days)	effects on the heart [3, 5]	serum total and LDL cholesterol, apoB levels [3, 5]	cartilage damage (cartilage)
Cc1cc(OCC(=O)O)cc(C)c1Cc1ccc(O)c(C(C)C)c1 [GC-1]	None of the TR beta agonists including GC-1, KB-2115 or their nanoformulations resulted in any significant changes	None of the TR beta agonists including GC-1, KB-2115 or their nanoformulations resulted in any significant changes	1.0 mg/kg	dose-dependent lowering of total cholesterol	effective in lowering serum cholesterol and triglyceride	lower serum cholesterol and triglyceride	–	–	–	–
CC(C)c1cc(Oc2c(Br)cc(NC(=O)CC(=O)O)cc2Br)ccc1O [KB-2115]	None of the TR beta agonists including GC-1, KB-2115 or their nanoformulations resulted in any significant changes	None of the TR beta agonists including GC-1, KB-2115 or their nanoformulations resulted in any significant changes	–	–	–	lower serum cholesterol and triglyceride	60-80%	without detectable effects on the heart	reduced	Cartilage damage was observed
